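Five concentrations, 48 hours, 96-well plates. GI50 marks 50% less growth.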 The source made the active and inactive calls. No stated cut-off is given here; in the data, active = GI50 up to about 1.1 µM and inactive = higher.
Experiments:
Experiment in all cases: NCI anticancer screen, dose series, 48 h
PC-3 = test system: PC-3
SN12C = test system: SN12C
SNB-75 = test system: SNB-75
SW-620 = test system: SW-620
OVCAR-8 = test system: OVCAR-8
CCRF-CEM = test system: CCRF-CEM
NCI-H460 = test system: NCI-H460
UO-31 = test system: UO-31
T47D = test system: T47D
MDA-N = test system: MDA-N
ACHN = test system: ACHN
CAKI-1 = test system: CAKI-1
HL-60 = test system: HL-60
SNB-19 = test system: SNB-19
RXF 393 = test system: RXF 393
HCT-116 = test system: HCT-116
OVCAR-3 = test system: OVCAR-3
Hs-578T = test system: Hs-578T

Structure (SMILES): CC(=O)c1c(C)cn(S(=O)(=O)NC(=O)Nc2nncs2)c1C
- GI50 (PC-3): > 100 µM (inactive)
- GI50 (SN12C): > 100 µM (inactive)
- GI50 (SNB-75): > 100 µM (inactive)
- GI50 (SW-620): > 100 µM (inactive)
- GI50 (OVCAR-8): > 100 µM (inactive)
- GI50 (CCRF-CEM): 23.3 µM (inactive)
- GI50 (NCI-H460): > 100 µM (inactive)
- GI50 (UO-31): 68.9 µM (inactive)
- GI50 (T47D): > 100 µM (inactive)
- GI50 (MDA-N): > 100 µM (inactive)
- GI50 (ACHN): > 100 µM (inactive)
- GI50 (CAKI-1): > 100 µM (inactive)
- GI50 (HL-60): > 100 µM (inactive)
- GI50 (SNB-19): > 100 µM (inactive)
- GI50 (RXF 393): > 100 µM (inactive)
- GI50 (HCT-116): > 100 µM (inactive)
- GI50 (OVCAR-3): > 100 µM (inactive)
- GI50 (Hs-578T): > 100 µM (inactive)

Structure (SMILES): Nc1ccccc1OCCCOc1ccccc1N
- GI50 (PC-3): > 100 µM (inactive)
- GI50 (SN12C): > 100 µM (inactive)
- GI50 (SNB-75): > 100 µM (inactive)
- GI50 (SW-620): > 100 µM (inactive)
- GI50 (OVCAR-8): > 100 µM (inactive)
- GI50 (CCRF-CEM): > 100 µM (inactive)
- GI50 (NCI-H460): > 100 µM (inactive)
- GI50 (UO-31): > 100 µM (inactive)
- GI50 (T47D): > 100 µM (inactive)
- GI50 (MDA-N): 51.8 µM (inactive)
- GI50 (ACHN): > 100 µM (inactive)
- GI50 (CAKI-1): > 100 µM (inactive)
- GI50 (HL-60): > 100 µM (inactive)
- GI50 (SNB-19): > 100 µM (inactive)
- GI50 (RXF 393): > 100 µM (inactive)
- GI50 (HCT-116): > 100 µM (inactive)
- GI50 (OVCAR-3): > 100 µM (inactive)
- GI50 (Hs-578T): > 100 µM (inactive)

Structure (SMILES): C=C(c1ccccc1)c1ccccc1-c1cc(-c2ccccc2)cc(-c2ccccc2)n1
- GI50 (PC-3): > 100 µM (inactive)
- GI50 (SN12C): > 100 µM (inactive)
- GI50 (SNB-75): > 100 µM (inactive)
- GI50 (SW-620): > 100 µM (inactive)
- GI50 (OVCAR-8): > 100 µM (inactive)
- GI50 (CCRF-CEM): 84.9 µM (inactive)
- GI50 (NCI-H460): > 100 µM (inactive)
- GI50 (UO-31): > 100 µM (inactive)
- GI50 (T47D): 9.08 µM (inactive)
- GI50 (MDA-N): > 100 µM (inactive)
- GI50 (ACHN): > 100 µM (inactive)
- GI50 (CAKI-1): > 100 µM (inactive)
- GI50 (HL-60): 34.5 µM (inactive)
- GI50 (SNB-19): > 100 µM (inactive)
- GI50 (RXF 393): > 100 µM (inactive)
- GI50 (HCT-116): 65.8 µM (inactive)
- GI50 (OVCAR-3): 76.6 µM (inactive)
- GI50 (Hs-578T): > 100 µM (inactive)

Structure (SMILES): COc1cccc(/N=C/c2cc(OC)c(OC)c(OC)c2)c1
- GI50 (PC-3): > 100 µM (inactive)
- GI50 (SN12C): > 100 µM (inactive)
- GI50 (SNB-75): > 100 µM (inactive)
- GI50 (SW-620): > 100 µM (inactive)
- GI50 (OVCAR-8): > 100 µM (inactive)
- GI50 (CCRF-CEM): > 100 µM (inactive)
- GI50 (NCI-H460): 64.9 µM (inactive)
- GI50 (UO-31): > 23 µM (inactive)
- GI50 (T47D): 64.3 µM (inactive)
- GI50 (MDA-N): 25.8 µM (inactive)
- GI50 (ACHN): 20.8 µM (inactive)
- GI50 (CAKI-1): > 100 µM (inactive)
- GI50 (HL-60): > 100 µM (inactive)
- GI50 (RXF 393): 78.7 µM (inactive)
- GI50 (HCT-116): > 100 µM (inactive)
- GI50 (OVCAR-3): 1 µM (active)
- GI50 (Hs-578T): > 100 µM (inactive)

Structure (SMILES): COCCOCc1nc(C#N)c(N)o1
- GI50 (PC-3): > 100 µM (inactive)
- GI50 (SN12C): > 100 µM (inactive)
- GI50 (SNB-75): > 100 µM (inactive)
- GI50 (SW-620): > 100 µM (inactive)
- GI50 (CCRF-CEM): > 100 µM (inactive)
- GI50 (NCI-H460): > 100 µM (inactive)
- GI50 (UO-31): > 100 µM (inactive)
- GI50 (T47D): > 100 µM (inactive)
- GI50 (MDA-N): > 100 µM (inactive)
- GI50 (ACHN): > 100 µM (inactive)
- GI50 (CAKI-1): > 100 µM (inactive)
- GI50 (HL-60): > 100 µM (inactive)
- GI50 (SNB-19): > 100 µM (inactive)
- GI50 (RXF 393): > 100 µM (inactive)
- GI50 (HCT-116): > 100 µM (inactive)
- GI50 (OVCAR-3): > 100 µM (inactive)
- GI50 (Hs-578T): > 100 µM (inactive)

Structure (SMILES): CCOc1ccc2nc(NC(=O)C(=O)C(c3cnc4ccccc4n3)[N+](=O)[O-])sc2c1 (stereo not given)
- GI50 (PC-3): > 100 µM (inactive)
- GI50 (SN12C): > 100 µM (inactive)
- GI50 (SNB-75): > 100 µM (inactive)
- GI50 (OVCAR-8): 53.5 µM (inactive)
- GI50 (CCRF-CEM): 44.8 µM (inactive)
- GI50 (NCI-H460): > 100 µM (inactive)
- GI50 (UO-31): 77.3 µM (inactive)
- GI50 (T47D): > 100 µM (inactive)
- GI50 (MDA-N): > 100 µM (inactive)
- GI50 (ACHN): 43.8 µM (inactive)
- GI50 (CAKI-1): > 100 µM (inactive)
- GI50 (HL-60): 56.2 µM (inactive)
- GI50 (SNB-19): 69.2 µM (inactive)
- GI50 (RXF 393): > 100 µM (inactive)
- GI50 (HCT-116): > 100 µM (inactive)
- GI50 (OVCAR-3): > 100 µM (inactive)
- GI50 (Hs-578T): > 100 µM (inactive)
